IC50 data for 28 compounds are collected here from US8673906B2, “Chromenone derivatives” (AstraZeneca AB, priority 2010, dated 2014).

For this assay, the target named is PI3Kβ (Homo sapiens (Human), UniProt P42338). Briefly: In vitro enzyme inhibition assay (Kinase Glo based enzyme activity assay). Type of assay: biochemical. To be noted: Test (a), human recombinant enzyme; read-out: PI3Kβ inhibition, IC50. The method, then: (a) In Vitro Enzyme Inhibition Assay
The inhibition of PI3Kβ, PI3Kα, PI3Kγ and PI3Kδ was evaluated in a Kinase Glo based enzyme activity assay using human recombinant enzymes. The assay measures depletion of ATP after incubation with enzyme, PIP2 and ATP plus compound. ATP at the end of the reaction is detected by addition of Kinase Glo reagent, in this the Ultra Glo™ luciferase (Promega) uses the ATP as a substrate to catalyze the mono-oxygenation of luciferin and the generation of light. A direct relationship exists between the luminescence measured with the Kinase-Glo Plus Reagent and the amount of ATP remaining in a completed kinase reaction and luminescence is inversely related to kinase activity. Twelve different compound concentrations were tested and raw data from the inhibition of PI3 Kb, PI3Kα, PI3Kγ and PI3Kδ was plotted versus inhibitor concentration.
Compounds in 100% DMSO were added to assay plates by acoustic dispensing. PI3Kβ was added in a Tris buffer (50 mM Tris pH7.4, 0.05% CHAPS, 2.1 mM DTT, and 10 mM MgCl2) and allowed to preincubate with compound for 20 minutes prior to addition of substrate solution containing PIP2 and ATP. The enzyme reaction was stopped after 80 minutes by the addition of Kinase Glo detection solution. Plates were left for 30 minutes at room temperature then read on a Pherastar Instrument (Luminescence ATP 384 program) setting gain on max well. The final concentration of DMSO, ATP and PIP2 in the assay were, 1%, 80 μM, and 80 μM respectively.
IC50 values were calculated using a log curve fitting to a non-linear regression package, fitting raw data to inhibitor concentration.

PI3Kβ, sequence (P42338 whole entry): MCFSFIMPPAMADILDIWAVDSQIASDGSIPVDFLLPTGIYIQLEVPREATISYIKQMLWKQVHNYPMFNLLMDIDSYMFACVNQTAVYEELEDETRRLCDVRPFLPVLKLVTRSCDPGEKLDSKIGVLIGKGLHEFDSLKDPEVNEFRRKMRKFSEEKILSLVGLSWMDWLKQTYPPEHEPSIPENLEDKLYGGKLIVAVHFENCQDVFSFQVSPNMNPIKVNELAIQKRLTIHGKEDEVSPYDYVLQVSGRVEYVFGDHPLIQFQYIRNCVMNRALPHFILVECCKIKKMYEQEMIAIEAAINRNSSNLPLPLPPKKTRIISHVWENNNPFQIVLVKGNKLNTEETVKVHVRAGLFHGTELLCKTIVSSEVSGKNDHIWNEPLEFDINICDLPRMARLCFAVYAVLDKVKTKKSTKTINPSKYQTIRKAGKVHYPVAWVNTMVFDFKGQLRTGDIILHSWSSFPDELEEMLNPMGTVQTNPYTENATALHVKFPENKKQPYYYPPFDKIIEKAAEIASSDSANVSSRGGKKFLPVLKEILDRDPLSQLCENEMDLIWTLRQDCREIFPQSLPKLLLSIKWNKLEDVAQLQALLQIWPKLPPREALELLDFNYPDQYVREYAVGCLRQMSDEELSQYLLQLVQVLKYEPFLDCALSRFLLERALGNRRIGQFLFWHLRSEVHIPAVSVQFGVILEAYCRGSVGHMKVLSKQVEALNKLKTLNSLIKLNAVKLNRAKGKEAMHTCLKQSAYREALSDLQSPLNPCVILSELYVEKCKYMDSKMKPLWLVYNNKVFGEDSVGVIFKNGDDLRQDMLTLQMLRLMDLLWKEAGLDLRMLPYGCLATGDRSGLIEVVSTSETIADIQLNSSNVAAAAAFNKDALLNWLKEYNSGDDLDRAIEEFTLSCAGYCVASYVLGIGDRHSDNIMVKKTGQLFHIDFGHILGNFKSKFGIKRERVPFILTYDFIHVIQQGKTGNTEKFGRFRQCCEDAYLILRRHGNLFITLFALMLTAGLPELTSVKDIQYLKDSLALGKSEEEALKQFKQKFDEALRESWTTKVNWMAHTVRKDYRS
PI3Kβ, sequence (P27986 whole entry partner): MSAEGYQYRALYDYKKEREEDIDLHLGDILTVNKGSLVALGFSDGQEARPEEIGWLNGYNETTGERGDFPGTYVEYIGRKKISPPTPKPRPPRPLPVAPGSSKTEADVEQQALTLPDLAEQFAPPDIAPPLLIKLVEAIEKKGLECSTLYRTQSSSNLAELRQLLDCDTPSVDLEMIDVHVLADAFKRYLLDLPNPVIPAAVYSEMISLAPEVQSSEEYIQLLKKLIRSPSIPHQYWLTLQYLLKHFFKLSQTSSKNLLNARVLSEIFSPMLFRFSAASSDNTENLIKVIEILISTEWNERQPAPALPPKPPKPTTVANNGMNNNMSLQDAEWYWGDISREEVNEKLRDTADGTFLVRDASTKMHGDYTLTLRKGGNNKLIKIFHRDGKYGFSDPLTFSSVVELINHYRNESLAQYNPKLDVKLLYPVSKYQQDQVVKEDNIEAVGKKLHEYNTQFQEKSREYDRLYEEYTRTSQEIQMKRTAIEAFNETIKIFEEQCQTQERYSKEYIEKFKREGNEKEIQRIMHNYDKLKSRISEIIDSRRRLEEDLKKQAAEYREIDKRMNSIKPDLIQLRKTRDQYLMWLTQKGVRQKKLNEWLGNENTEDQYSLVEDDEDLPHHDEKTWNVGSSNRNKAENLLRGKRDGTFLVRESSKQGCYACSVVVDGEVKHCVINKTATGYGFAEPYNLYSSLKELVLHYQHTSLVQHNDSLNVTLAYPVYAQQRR

As to `CC(Nc1cc(F)cc(F)c1)c1cc(C(=O)N(C)CCO)cc2c(=O)cc(N3CCOCC3)oc12` (stereo not shown) [Example 4.07, 8-(1-(3,5-difluorophenylamino)ethyl)-N-(2-hydroxyethyl)-N-methyl-2-morpholino-4-oxo-4H-chromene-6-carboxamide], the IC50 (as a rule, the midpoint of a concentration-inhibition curve) came to 4 nM.

Regarding `CC(Nc1cc(F)cc(F)c1)c1cc(C(=O)N2CCC(O)CC2)cc2c(=O)cc(N3CCOCC3)oc12` (stereo not shown) [Example 4.09, 8-(1-(3,5-difluorophenylamino)ethyl)-6-(4-hydroxypiperidine-1-carbonyl)-2-morpholino-4H-chromen-4-one], the IC50 turned out to be 3 nM.

For `CC(Nc1cc(F)cc(F)c1)c1cc(C(=O)N2CCCCC2)cc2c(=O)cc(N3CCOCC3)oc12` (stereo not shown) [Example 4.10, 8-(1-(3,5-difluorophenylamino)ethyl)-2-morpholino-6-(piperidine-1-carbonyl)-4H-chromen-4-one], the IC50 turned out to be 5 nM.

`CCN(C)C(=O)c1cc(C(C)Nc2cc(F)cc(F)c2)c2oc(N3CCOCC3)cc(=O)c2c1` (stereo not shown) [Example 4.11, 8-(1-(3,5-difluorophenylamino)ethyl)-N-ethyl-N-methyl-2-morpholino-4-oxo-4H-chromene-6-carboxamide]: the IC50 came out at 2 nM.

Consider `CC(Nc1cc(F)cc(F)c1)c1cc(C(=O)N2CC(O)C2)cc2c(=O)cc(N3CCOCC3)oc12` (stereo not shown) [Example 4.12, 8-(1-(3,5-difluorophenylamino)ethyl)-6-(3-hydroxyazetidine-1-carbonyl)-2-morpholino-4H-chromen-4-one], for which the IC50 turned out to be 4 nM.

In the case of `CC(Nc1cc(F)cc(F)c1)c1cc(C(=O)N2CC(F)C2)cc2c(=O)cc(N3CCOCC3)oc12` (stereo not shown) [Example 4.13, 8-(1-(3,5-difluorophenylamino)ethyl)-6-(3-fluoroazetidine-1-carbonyl)-2-morpholino-4H-chromen-4-one], the IC50 turned out to be 9 nM.

Turning to `CC(Nc1cc(F)cc(F)c1)c1cc(C(=O)NCCO)cc2c(=O)cc(N3CCOCC3)oc12` (stereo not shown) [Example 4.14, 8-(1-(3,5-difluorophenylamino)ethyl)-N-(2-hydroxyethyl)-2-morpholino-4-oxo-4H-chromene-6-carboxamide], the IC50 stood at 4 nM.

As for `COCCNC(=O)c1cc(C(C)Nc2cc(F)cc(F)c2)c2oc(N3CCOCC3)cc(=O)c2c1` (stereo not shown) [Example 4.15, 8-(1-(3,5-difluorophenylamino)ethyl)-N-(2-methoxyethyl)-2-morpholino-4-oxo-4H-chromene-6-carboxamide], the IC50 turned out to be 4 nM.

With `CCCNC(=O)c1cc(C(C)Nc2cc(F)cc(F)c2)c2oc(N3CCOCC3)cc(=O)c2c1` (stereo not shown) [Example 4.16, 8-(1-(3,5-difluorophenylamino)ethyl)-2-morpholino-4-oxo-N-propyl-4H-chromene-6-carboxamide], the IC50 was 9 nM.

For `CCNC(=O)c1cc(C(C)Nc2cc(F)cc(F)c2)c2oc(N3CCOCC3)cc(=O)c2c1` (stereo not shown) [Example 4.17, 8-(1-(3,5-difluorophenylamino)ethyl)-N-ethyl-2-morpholino-4-oxo-4H-chromene-6-carboxamide], the IC50 worked out at 5 nM.

`CC(Nc1cc(F)cc(F)c1)c1cc(C(=O)NCCF)cc2c(=O)cc(N3CCOCC3)oc12` (stereo not shown) [Example 4.18, 8-(1-(3,5-difluorophenylamino)ethyl)-N-(2-fluoroethyl)-2-morpholino-4-oxo-4H-chromene-6-carboxamide]: the IC50 was found to be 4 nM.

Turning to `COCCCNC(=O)c1cc(C(C)Nc2cc(F)cc(F)c2)c2oc(N3CCOCC3)cc(=O)c2c1` (stereo not shown) [Example 4.19, 8-(1-(3,5-difluorophenylamino)ethyl)-N-(3-methoxypropyl)-2-morpholino-4-oxo-4H-chromene-6-carboxamide], the IC50 is 23 nM.

Turning to `CC(Nc1cc(F)cc(F)c1)c1cc(C(=O)N2CCC[C@@H]2CO)cc2c(=O)cc(N3CCOCC3)oc12` (stereo partly drawn) [Example 4.20, 8-(1-(3,5-difluorophenylamino)ethyl)-6-((R)-2-(hydroxymethyl)pyrrolidine-1-carbonyl)-2-morpholino-4H-chromen-4-one], the IC50 came out at 5 nM.

Turning to `CC(Nc1cc(F)cc(F)c1)c1cc(C(=O)N2CCC[C@H]2CO)cc2c(=O)cc(N3CCOCC3)oc12` (stereo partly drawn) [Example 4.21, 8-(1-(3,5-difluorophenylamino)ethyl)-6-((S)-2-(hydroxymethyl)pyrrolidine-1-carbonyl)-2-morpholino-4H-chromen-4-one], the IC50 stood at 4 nM.

With `CNC(=O)c1cc(C(C)Nc2cc(F)cc(F)c2)c2oc(N3CCOCC3)cc(=O)c2c1` (stereo not shown) [Example 4.22, 8-(1-(3,5-difluorophenylamino)ethyl)-N-methyl-2-morpholino-4-oxo-4H-chromene-6-carboxamide], the IC50 stood at 4 nM.

Regarding `CC(Nc1cc(F)cc(F)c1)c1cc(C(=O)NCC2CC2)cc2c(=O)cc(N3CCOCC3)oc12` (stereo not shown) [Example 4.23, N-(cyclopropylmethyl)-8-(1-(3,5-difluorophenylamino)ethyl)-2-morpholino-4-oxo-4H-chromene-6-carboxamide], the IC50 was found to be 3 nM.

`COCCN(C)C(=O)c1cc(C(C)Nc2cc(F)cc(F)c2)c2oc(N3CCOCC3)cc(=O)c2c1` (stereo not shown) [Example 4.24, 8-(1-(3,5-difluorophenylamino)ethyl)-N-(2-methoxyethyl)-N-methyl-2-morpholino-4-oxo-4H-chromene-6-carboxamide]: the IC50 worked out at 4 nM.

As to `CC(Nc1cc(F)cc(F)c1)c1cc(C(=O)N2CCCOCC2)cc2c(=O)cc(N3CCOCC3)oc12` (stereo not shown) [Example 4.25, 8-(1-(3,5-difluorophenylamino)ethyl)-2-morpholino-6-(1,4-oxazepane-4-carbonyl)-4H-chromen-4-one], the 50% inhibitory concentration (IC50) came out at 5 nM.

For the compound `COC1CCN(C(=O)c2cc(C(C)Nc3cc(F)cc(F)c3)c3oc(N4CCOCC4)cc(=O)c3c2)CC1` (stereo not shown) [Example 4.26, 8-(1-(3,5-difluorophenylamino)ethyl)-6-(4-methoxypiperidine-1-carbonyl)-2-morpholino-4H-chromen-4-one], the IC50 was 4 nM.

Consider `CC(c1cc(C(=O)N2CCC(O)CC2)cc2c(=O)cc(N3CCOCC3)oc12)N(C)c1cc(F)cc(F)c1` (stereo not shown) [Example 5.01, 8-(1-((3,5-difluorophenyl)(methyl)amino)ethyl)-6-(4-hydroxypiperidine-1-carbonyl)-2-morpholino-4H-chromen-4-one], for which the IC50 is 8 nM.

As to `CC(c1cc(C(=O)N2CCC(O)C2)cc2c(=O)cc(N3CCOCC3)oc12)N(C)c1cc(F)cc(F)c1` (stereo not shown) [Example 5.02, 8-(1-((3,5-difluorophenyl)(methyl)amino)ethyl)-6-(3-hydroxypyrrolidine-1-carbonyl)-2-morpholino-4H-chromen-4-one], the IC50 was 7 nM.

Take `CC(c1cc(C(=O)N2CCC[C@@H]2CO)cc2c(=O)cc(N3CCOCC3)oc12)N(C)c1cc(F)cc(F)c1` (stereo partly drawn) [Example 5.03, 8-(1-((3,5-difluorophenyl)(methyl)amino)ethyl)-6-((R)-2-(hydroxymethyl)pyrrolidine-1-carbonyl)-2-morpholino-4H-chromen-4-one]: the IC50 is 7 nM.

As for `CC(c1cc(C(=O)N2CCCC2)cc2c(=O)cc(N3CCOCC3)oc12)N(C)c1cc(F)cc(F)c1` (stereo not shown) [Example 6.0, 8-(1-((3,5-difluorophenyl)(methyl)amino)ethyl)-2-morpholino-6-(pyrrolidine-1-carbonyl)-4H-chromen-4-one], the IC50 turned out to be 5 nM.

As to `CC(Nc1ccc(F)cc1)c1cc(C(=O)N(C)C)cc2c(=O)cc(N3CCO[C@H](C)C3)oc12` (stereo partly drawn) [Example 9.0, 8-(1-(4-fluorophenylamino)ethyl)-N,N-dimethyl-2-((R)-2-methylmorpholino)-4-oxo-4H-chromene-6-carboxamide], the IC50 was determined as 5 nM.

As to `CC(Nc1cc(F)cc(F)c1)c1cc(C(=O)N(C)C)cc2c(=O)cc(N3CCO[C@H](C)C3)oc12` (stereo partly drawn) [Example 9.01, 8-(1-(3,5-difluorophenylamino)ethyl)-N,N-dimethyl-2-((R)-2-methylmorpholino)-4-oxo-4H-chromene-6-carboxamide], the IC50 came out at 4 nM.

Take `CC(Nc1cc(F)cc(F)c1)c1cc(C(=O)N(C)C)cc2c(=O)cc(N3CCO[C@@H](C)C3)oc12` (stereo partly drawn) [Example 9.02, 8-(1-(3,5-difluorophenylamino)ethyl)-N,N-dimethyl-2-((S)-2-methylmorpholino)-4-oxo-4H-chromene-6-carboxamide]: the IC50 is 11 nM.

With `CC(c1cc(C(=O)N(C)C)cc2c(=O)cc(N3CCO[C@H](C)C3)oc12)N(C)c1cc(F)cc(F)c1` (stereo partly drawn) [Example 10.01, 8-(1-((3,5-difluorophenyl)(methyl)amino)ethyl)-N,N-dimethyl-2-((R)-2-methylmorpholino)-4-oxo-4H-chromene-6-carboxamide], the IC50 stood at 12 nM.

As to `CC(c1cc(C(=O)N(C)CCO)cc2c(=O)cc(N3CCO[C@H](C)C3)oc12)N(C)c1cc(F)cc(F)c1` (stereo partly drawn) [Example 10.02, 8-(1-((3,5-difluorophenyl)(methyl)amino)ethyl)-N-(2-hydroxyethyl)-N-methyl-2-((R)-2-methylmorpholino)-4-oxo-4H-chromene-6-carboxamide], the IC50 was 11 nM.
